Literature values, collected in US5595896A, “Expression of heterologous genes in transgenic plants and plant cells using plant asparagine synthetase promoters” (New York University, priority 1993, dated 1997).
Numbered stars: 1 amine (or outer) side, 2 acyl side, 3 side chain; on linkers, the order of the positions; unused ones are H or OH. Bridge positions count the residues as written; N and C are the ends. Square brackets hold non-standard residues; d marks the D form. Peptide text beside a SMILES is read from it. I, II: the chains in the order shown. Actinocin(9to1) = Cc1c2oc3c(C)ccc(C(=O)[*:1])c3nc-2c(C(=O)[*:2])c(N)c1=O; NMeV = CN[CH](C(=O)O)C(C)C; Sar = CNCC(=O)O

test system: PLANT AS; conditions: not given

**Q.** With CS(=N)(=O)CC[C@H](N)C(=O)O (stereo partly drawn) [L-methionine-S-sulphoximine] as the compound, how does the “Inhibition (%)” value read?
**A.** 8.6%

same assay, conditions: Asparagine analogues, 2 mM

**Q.** For NC(=O)[C@H](O)[C@H](N)C(=O)O [erythro-β-hydroxy-L-asparagine], which “Inhibition (%)” value is on record?
**A.** 59.5%

**Q.** For NC(=O)[C@@H](O)[C@H](N)C(=O)O [threo β-hydroxy-L-asparagine], which “Inhibition (%)” value is on record?
**A.** 45.2%

**Q.** Which “Inhibition (%)” value does the source give for [N-]=[N+]=CC(=O)C[C@H](N)C(=O)O [5-diazo-4-oxo-L-norvaline] here?
**A.** 40.3%

**Q.** With N-methyl-L-asparagine as the compound, how does the “Inhibition (%)” value read?
**A.** 57.6%

**Q.** For N[C@@H](CS(N)(=O)=O)C(=O)O [2-amino-2-carboxy-L-ethanesulphonamide], which “Inhibition (%)” value is on record?
**A.** 42.5%

**Q.** For CN[C@@H](CC(N)=O)C(=O)O [N-α-methyl-L-asparagine], which “Inhibition (%)” value is on record?
**A.** 38.8%

**Q.** Which “Inhibition (%)” value does the source give for N-ethyl-L-asparagine here?
**A.** 47.2%

**Q.** With CC(C(N)=O)C(N)C(=O)O (racemic) [β-methyl-DL-asparagine] as the compound, how does the “Inhibition (%)” value read?
**A.** 55.1%

same assay, conditions: Aspartate analogues, 2 mM

**Q.** With C[C@H](C(=O)O)[C@H](N)C(=O)O [threo β-methyl-L-aspartate] as the compound, how does the “Inhibition (%)” value read?
**A.** 58.4%

**Q.** Which “Inhibition (%)” value does the source give for C[C@@H](C(=O)O)[C@H](N)C(=O)O [erythro β-methyl-L-aspartate] here?
**A.** 51.4%

**Q.** Which “Inhibition (%)” value does the source give for N[C@H](C(=O)O)[C@@H](O)C(=O)O [erythro β-hydroxy-L-aspartate] here?
**A.** 65.4%

**Q.** For N[C@@H](CC(=O)CBr)C(=O)O [5-bromo-4-oxo-L-norvaline], which “Inhibition (%)” value is on record?
**A.** 49.5%

**Q.** For N[C@@H](CC(=O)CCl)C(=O)O [5-chloro-4-oxo-L-norvaline], which “Inhibition (%)” value is on record?
**A.** 42.1%

**Q.** For NC(=O)[C@H](N)[C@H](N)C(=O)O (relative stereo) [meso-diaminosuccinamate], which “Inhibition (%)” value is on record?
**A.** 50.6%

same assay, conditions: Glutamine analogues, 5 mM

**Q.** With NC(=O)CC[C@H](N)C(N)=O [L-glutamate diamide] as the compound, how does the “Inhibition (%)” value read?
**A.** 9.1%

**Q.** With 2-hydroxyethyl-L-glutamine as the compound, how does the “Inhibition (%)” value read?
**A.** 31.1%

**Q.** Which “Inhibition (%)” value does the source give for NC(=O)NC[C@H](N)C(=O)O [L-albizziine] here?
**A.** 85.2%

**Q.** Which “Inhibition (%)” value does the source give for C=C(C[C@H](N)C(=O)O)C(N)=O [γ-methylene-L-glutamine] here?
**A.** 20.4%

**Q.** With CC(=O)N[C@@H](CCC(N)=O)C(=O)O [N-acetyl-L-glutamine] as the compound, how does the “Inhibition (%)” value read?
**A.** 10.2%

**Q.** For [N-]=[N+]=CC(=O)OC[C@H](N)C(=O)O [L-azaserine], which “Inhibition (%)” value is on record?
**A.** 97.5%

**Q.** Which “Inhibition (%)” value does the source give for CCOC(=O)CC[C@H](N)C(=O)O [L-glutamate-γ-ethyl ester] here?
**A.** 23.6%

**Q.** For NC(=O)CC[C@@H](N)C(=O)O [D-glutamine], which “Inhibition (%)” value is on record?
**A.** 14.8%

**Q.** Which “Inhibition (%)” value does the source give for NC(=O)SC[C@H](N)C(=O)O [S-carbamoyl-L-cysteine] here?
**A.** 35.6%

**Q.** Which “Inhibition (%)” value does the source give for NC(=O)CCCC(N)C(=O)O (racemic) [DL-homoglutamine] here?
**A.** 42.4%

**Q.** For NC(=O)CCC(NC(=O)OCc1ccccc1)C(=O)O (racemic) [N-CBZ-DL-glutamine], which “Inhibition (%)” value is on record?
**A.** 30.5%

**Q.** Which “Inhibition (%)” value does the source give for COC(=O)CC[C@H](N)C(=O)O [L-glutamate-γ-methyl ester] here?
**A.** 27.2%

test system: GS; conditions: toxin produced by P. syringae, coinfected alfalfa plants

**Q.** For N[C@@H](CCC1(O)CNC1=O)C(=O)O (stereo partly drawn) [Tabtoxinine β-lactam], which “GS activity inhibited by toxin” value is on record?
**A.** severely inhibited

test system: AS; conditions: actinomycin D treatment, cotyledons of germinating cotton seedlings

**Q.** Which “induction of AS activity” value does the source give for Cc1c2oc3c(C)ccc(C(=O)NC4C(=O)NC(C(C)C)C(=O)N5CCCC5C(=O)N(C)CC(=O)N(C)C(C(C)C)C(=O)OC4C)c3nc-2c(C(=O)NC2C(=O)NC(C(C)C)C(=O)N3CCCC3C(=O)N(C)CC(=O)N(C)C(C(C)C)C(=O)OC2C)c(N)c1=O (centres unmarked) [actinomycin D] (I: TVP[Sar][NMeV] / II: TVP[Sar][NMeV]; ester I:1-I:C, II:1-II:C; linker I:N-II:N via Actinocin(9to1); configuration not given here) here?
**A.** abolished
